Reference: patent US8686224B2, “Plant defense signal peptides” (priority 2005, dated 2014)
Non-standard residues stand in square brackets, D forms with d. Residues, ends and D or L forms follow the SMILES beside them. Primed or numbered codes have the meaning given here. No end group written: not given here. *: point of attachment. APDP″ = photoaffinity cross-linker coupled to Cys through a disulfide bond, [N-]=[N+]=Nc1ccc(C(=O)NCCCCNC(=O)CCS*)c(O)c1; Tyr(3-I) = N[C@@H](Cc1ccc(O)c(I)c1)C(=O)O

Key:
[1] = test system: OsPEPR1; assay: Medium alkalinization of transgenic tobacco cells expressing OsPEPR1; assay type: cell-based, rice
Description: We identified rice homologues of AtPEPR1 in the Rice Annotation Project database (see the website located at www.rapdb.dna.affrc.go.jp). The rice homologues, OsPEPR1 (Os08g0446200) and OsPEPR2 (Os08g0446400), have 60% and 62% amino acid similarities, respectively. The OsPEPR1 has 26 LRRs in the extracellular region, which is the same as AtPEPR1. The OsPEPR2 has a shorter extracellular region with 22 LRRs. Transgenic tobacco cells expressing either OsPEPR1 or OsPEPR2 were created to examine the possibility of receptor binding to monocot peptides. OsPep3a, OsPep3b, OsPep3c, ZmPep1 and ZmPep4a were supplied to suspension cultured transgenic tobacco cells, and medium pH was measured. OsPep3a, OsPep3b, ZmPep1 and ZmPep4a caused medium alkalinization in OsPEPR1 expressing cells with a 1.2 pH unit increase and a half-maximal activity of 0.25 nM.

[2] = biological target: T1, AtPEPR1 (Arabidopsis thaliana, UniProt Q9SSL9); assay: Medium alkalinization of transgenic tobacco cells expressing AtPEPR1; assay type: cell-based; details: for change in pH: 2.5 nanomolar
T1 construct: Tobacco cells were transformed with a CaMV-35S-AtPEPR1 gene; expressed in transfected cells; host or cells: tobacco suspension-cultured cells (Agrobacterium-mediated, CaMV 35S promoter)
T1 sequence (Q9SSL9 29-1123): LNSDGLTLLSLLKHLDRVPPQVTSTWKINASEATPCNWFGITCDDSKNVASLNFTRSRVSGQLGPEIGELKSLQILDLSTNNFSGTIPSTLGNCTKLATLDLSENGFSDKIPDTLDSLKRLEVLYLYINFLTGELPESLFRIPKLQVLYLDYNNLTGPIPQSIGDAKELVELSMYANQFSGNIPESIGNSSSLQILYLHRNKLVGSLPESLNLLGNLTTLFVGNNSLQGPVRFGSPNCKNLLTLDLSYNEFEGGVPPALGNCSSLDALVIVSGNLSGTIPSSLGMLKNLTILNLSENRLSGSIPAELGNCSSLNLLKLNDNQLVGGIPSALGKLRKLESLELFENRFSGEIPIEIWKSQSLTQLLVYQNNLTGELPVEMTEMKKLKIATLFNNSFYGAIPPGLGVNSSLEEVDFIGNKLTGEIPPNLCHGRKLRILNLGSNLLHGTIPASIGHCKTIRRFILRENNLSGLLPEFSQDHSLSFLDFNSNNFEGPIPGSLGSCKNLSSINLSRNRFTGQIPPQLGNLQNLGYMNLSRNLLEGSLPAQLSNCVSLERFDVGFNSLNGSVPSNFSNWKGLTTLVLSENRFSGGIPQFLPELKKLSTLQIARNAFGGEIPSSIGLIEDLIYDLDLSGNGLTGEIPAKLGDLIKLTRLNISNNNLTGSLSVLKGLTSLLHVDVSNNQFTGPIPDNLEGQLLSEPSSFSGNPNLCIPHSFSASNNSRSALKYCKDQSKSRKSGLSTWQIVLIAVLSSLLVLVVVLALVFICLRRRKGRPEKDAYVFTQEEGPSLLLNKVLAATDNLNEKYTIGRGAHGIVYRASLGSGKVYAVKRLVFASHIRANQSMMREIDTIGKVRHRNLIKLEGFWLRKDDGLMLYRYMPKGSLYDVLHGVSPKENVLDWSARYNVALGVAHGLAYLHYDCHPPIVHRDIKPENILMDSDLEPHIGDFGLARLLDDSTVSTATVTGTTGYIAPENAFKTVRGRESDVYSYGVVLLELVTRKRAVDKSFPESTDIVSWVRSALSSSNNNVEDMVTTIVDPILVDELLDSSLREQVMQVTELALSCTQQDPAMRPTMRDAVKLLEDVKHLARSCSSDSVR
Description: Tobacco cells were transformed with a CaMV-35S-AtPEPR1 gene to determine whether the foreign receptor protein was targeted to the cell surface, where, in response to AtPep1, it would activate intracellular signaling to effect the alkalinization of the medium of the transgenic tobacco cells. Expression of the AtPEPR1 gene was confirmed by RT-PCR analysis of RNA from three independently transformed tobacco cell lines. […] AtPep2-7 was also supplied to the transgenic tobacco cells expressing AtPEPR1.
To clarify whether AtPEPR2 binds to AtPep1, the AtPEPR2 coding region was fused to the CaMV 35S promoter and introduced into tobacco suspension-cultured cells by Agrobacterium. Tobacco cells expressing AtPEPR1 and GUS genes were also created as positive and negative controls, respectively. […] These transgenic lines were analyzed for alkalinizing activity as previously described (Pearce et al., Proc. Natl. Acad. Sci. USA 98, 12843-12847, 2001).
The response to all AtPep peptides in transgenic tobacco cells expressing either AtPEPR1 or AtPEPR2 was analyzed by the medium alkalinization assay.

[3] = test system: Arabidopsis suspension cultured cells; assay: Alkalinization assay with Arabidopsis suspension cultured cells; assay type: cell-based, Arabidopsis thaliana
Experimental: For the alkalinization assay, cells suspensions are grown in a volume of 40 ml in a 125 ml flask. Tobacco and Arabidopsis cells are typically grown for 3-5 days before use. Tomato cells are typically grown for 4-7 days before use. Soybean cells are generally grown for 3-7 days before use. Preferably, cells are in mid to log or log phase when they are to be used for the alkalinization assay. A 1 ml pipette tip with the end cut off (to prevent clogging of the tip with the cells) is used to aliquot 1 ml of the cells from the suspension into a well in a 24-well culture cluster plate. The flask is swirled between aliquots to ensure that the cells remain evenly dispersed throughout the cell suspension and an roughly equivalent number of cells is provided to each well. The plate(s) are then shaken at 160 rpm for 1 hour. Small aliquots ([…]) of extracted peptide fractions are then added to the wells. After 20 min, the pH of the cell media is measured and recorded.
Alkalinization Assay. Arabidopsis suspension cells were grown with shaking in the dark in 125 mL flasks, using 40 mL NT media as previously described (Pearce et al. Proc. Natl. Acad. Sci. USA 98:12843-12847, 2001). The cells were transferred weekly (2.5 mL) and used for assays 3-5 days after transfer. One mL aliquots of cells were transferred to wells of 24-well culture plates and allowed to equilibrate for one hour while agitated on a rotary shaker at 160 rpm. Aliquots of 1-10 μL from extracts or fractions eluted from HPLC columns were added to cells and the pH of the media was monitored after 20 min.
Alkalinization assay. Medium alkalinization activity of Arabidopsis suspension cultured cells by AtPep1 analogs was analyzed as previously described for systemin (Pearce et al., Science 253:895-897, 1991), RALF (Pearce et al. Proc. Natl. Acad. Sci. USA 98:12843-12847, 2001), HypSys peptides (Pearce and Ryan. J. Biol. Chem. 278:30044-30050, 2003; Pearce et al., Nature 411:817-820, 2001), and AtPep1 (supra). The alkalinization activity of azido-Cys-AtPep1 were carried out after incubation the analog with cells in darkness for 10 min, when the pH was recorded.
Analogs of AtPep1 from the C-terminus of AtPep1 were synthesized and assayed in the alkalinization assay. One mL aliquots of 4 day old Arabidopsis cells were allowed to equilibrate on an orbital shaker at 180 rpm for one hour. A 10 μL aliquot of each peptide solution was added to the cells. Peptide concentrations of 0.25 nM, 2.5 nM, and 25 nM were tested. After 20 min, the pH of the media was recorded.
The 15-mer from the carboxy-terminus of AtPep1 ([…] (SEQ ID NO: 78)) was substituted with alanine at each position to assess which amino acids were necessary for the alkalinizing activity. […] The set of substituted 15-mer peptides was assayed using four-day-old Arabidopsis cells. […] of each peptide (2.5 pmoles) was added to 1 ml of cells to make a final concentration of 2.5 nM. After 20 min, the pH of the media was recorded. The data is the average of three separate experiments.

[4] = biological target: T2, AtPep1 receptor (At1g73080, AtPEPR1) (Arabidopsis thaliana, UniProt Q9SSL9); assay: Binding assay of 125I1-Tyr-AtPep1 with Arabidopsis suspension cultured cells
T2 sequence (Q9SSL9 29-1123): T1 sequence (Q9SSL9 29-1123)
Experimental: Binding assays. […] The filtered cells were washed three times with 5 mL of cold MS medium containing 3% sucrose, suspended in 1 mL MS medium containing 3% sucrose in a glass test tube, and analyzed for total radioactivity in a gamma-ray counter (Isodata 2020; Isodata Inc., Palatine, Ill.).

[5] = test system: P. syringae pv. tomato DC3000 (Pst DC3000); assay: Pst DC3000 inoculation of Arabidopsis leaves with peptide pre-infiltration; assay type: in vivo, Pseudomonas syringae; details: wild type, cfu/cm^2 4 days after infection; AtPep1 10 nM solution
Description: The resistance to P. irregulare requires the JA signaling pathway in Arabidopsis (Staswick et al, Plant J. 15: 747-754, 1998), and AtPep peptides induced PDF1.2, a marker gene for the JA response (Huffaker et al., Proc. Natl. Acad. Sci. USA 103: 10098-10103, Huffaker and Ryan, Proc. Natl. Acad. Sci. USA 104: 10732-10736, 2007). […] In order to examine this possibility, Arabidopsis plants were inoculated with P. syringae pv. tomato DC3000 (Pst DC3000) with or without AtPep1 pre-infiltration. Pst DC3000 was extracted from the infected leaves 4 days after infection and colony forming units (cfu/cm^2) were calculated. […] The reduction of Pst DC3000 growth was also not observed when the double mutant, pepr1-1/pepr2-1, was pre-infiltrated with AtPep1. […] Pre-infiltration of AtPep2-6 also attenuated Pst DC3000 growth to different degrees.
To assess the importance of AtPEPR1 and AtPEPR2 in the resistance to Pst DC3000 after infiltration of AtPep1, T-DNA insertional mutants were inoculated. When 1 μM AtPep1 was infiltrated into leaves one day prior to Pst DC3000 inoculation, the size of the necrotic regions were reduced in both wild type and single mutant lines, pepr1-1 and pepr2-1. […] Similar results were obtained when another set of mutant lines, pepr1-2, pepr2-2 and pepr1-2/pepr2-2, was used.

[6] = AtPEPR1 expressing tobacco cells
[7] = Arabidopsis suspension cultured cells, pH of media after 20 min

Chain of OsPEPR1 (as listed by the source): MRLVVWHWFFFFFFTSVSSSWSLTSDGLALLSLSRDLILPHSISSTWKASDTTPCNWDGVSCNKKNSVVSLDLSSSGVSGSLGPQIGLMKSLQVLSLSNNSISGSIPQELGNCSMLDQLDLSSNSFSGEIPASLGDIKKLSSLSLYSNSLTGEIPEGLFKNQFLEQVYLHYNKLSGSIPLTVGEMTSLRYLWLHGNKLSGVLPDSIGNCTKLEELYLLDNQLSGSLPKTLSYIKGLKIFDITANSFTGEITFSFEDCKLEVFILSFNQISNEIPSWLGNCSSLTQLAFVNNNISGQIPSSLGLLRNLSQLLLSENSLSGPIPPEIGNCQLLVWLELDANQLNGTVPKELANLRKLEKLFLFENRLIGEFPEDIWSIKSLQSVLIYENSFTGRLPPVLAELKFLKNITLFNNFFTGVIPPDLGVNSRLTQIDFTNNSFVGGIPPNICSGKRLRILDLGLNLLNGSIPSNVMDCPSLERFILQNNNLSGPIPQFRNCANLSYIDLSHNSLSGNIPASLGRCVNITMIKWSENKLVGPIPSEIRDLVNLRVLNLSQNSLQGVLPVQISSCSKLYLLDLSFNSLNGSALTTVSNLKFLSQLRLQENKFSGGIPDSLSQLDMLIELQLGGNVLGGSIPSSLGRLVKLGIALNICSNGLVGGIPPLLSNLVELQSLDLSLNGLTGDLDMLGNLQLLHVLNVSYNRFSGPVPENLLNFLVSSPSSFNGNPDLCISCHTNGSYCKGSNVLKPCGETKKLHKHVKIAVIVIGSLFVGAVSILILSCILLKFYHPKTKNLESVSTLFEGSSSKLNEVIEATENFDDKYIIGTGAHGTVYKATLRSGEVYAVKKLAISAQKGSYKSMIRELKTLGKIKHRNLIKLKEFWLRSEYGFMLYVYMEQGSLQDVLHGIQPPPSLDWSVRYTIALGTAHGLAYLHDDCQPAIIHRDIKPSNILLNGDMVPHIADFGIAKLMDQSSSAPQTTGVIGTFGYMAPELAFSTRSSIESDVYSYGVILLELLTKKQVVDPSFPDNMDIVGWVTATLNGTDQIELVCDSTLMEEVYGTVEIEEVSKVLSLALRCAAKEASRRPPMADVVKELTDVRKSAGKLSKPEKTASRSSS

RRPTPPGGAGPREGSGGRGGVIH [OsPep3b, RRPTPPGGAGPREGSGGRGGVIH]
medium pH increase [1]: 1.2 pH unit | EC50 ([1]; read-out: half-maximal activity): 0.25 nM

VSGNVAARKGKQQTSSGKGGGTN (VSGNVAARKGKQQTSSGKGGGTN) [AtPep7]
change in pH [2, 6]: did not increase medium pH | alkalinization of the medium [2, 6]: weaker activity

15-mer RGKEKVSSGRPGQHN with Ser at position 7 replaced by Ala (-ASGR-) [Ser to Ala substitution at position 7]
activity in the alkalinization assay [3, 7]: little activity | competition with the non-substituted 15-mer for receptor binding [4]: neither of these analogs were able to compete

SSGRPGQHN
activity in the alkalinization assay [3, 7]: inactive

ITAVLRRRPRPPPYSSGRPGQNN [AtPep6, ITAVLRRRPRPPPYSSGRPGQNN]
EC50 [2]: ~0.25 nM | maximal change [2, 6]: 1.2 pH units

azido-Cys-AtPep1: Cys-AtPep1 coupled through a disulfide bond to the photoaffinity cross-linker APDP (C(APDP″)ATKVKAKQRGKEKVSSGRPGQHN)
activity in the alkalinization assay [3, 7]: as fully active as the native peptide

GLPGKKNVLKKSRESSGKPGGTN [AtPep5, GLPGKKNVLKKSRESSGKPGGTN]
EC50 [2]: ~0.25 nM

CC(C)[C@H](NC(=O)[C@H](CCCCN)NC(=O)[C@@H](NC(=O)[C@H](C)NC(=O)[C@@H](N)Cc1ccc(O)c(I)c1)[C@@H](C)O)C(=O)N[C@@H](CCCCN)C(=O)N[C@@H](C)C(=O)N[C@@H](CCCCN)C(=O)N[C@@H](CCC(N)=O)C(=O)N[C@@H](CCCNC(=N)N)C(=O)NCC(=O)N[C@@H](CCCCN)C(=O)N[C@@H](CCC(=O)O)C(=O)N[C@@H](CCCCN)C(=O)N[C@H](C(=O)N[C@@H](CO)C(=O)N[C@@H](CO)C(=O)NCC(=O)N[C@@H](CCCNC(=N)N)C(=O)N1CCC[C@H]1C(=O)NCC(=O)N[C@@H](CCC(N)=O)C(=O)N[C@@H](Cc1c[nH]cn1)C(=O)N[C@@H](CC(N)=O)C(=O)O)C(C)C [mono-iodo-Tyr-AtPep1] (H-[Tyr(3-I)]ATKVKAKQRGKEKVSSGRPGQHN-OH)
activity in the alkalinization assay [3, 7]: as fully active as AtPep1 | time to equilibration of binding [4]: ≤ 4 min | peptide concentration saturating the sites ([4]; 10^6 cells/assay): about 0.1 nM | Kd ([4]; Scatchard analysis of the saturation data, Arabidopsis suspension cultured cells): 0.25 nM | time to maximal binding to Arabidopsis cells ([4]; saturation kinetics): ≤ 10 min

RGKEKVSSGRPGQHN [Peptide 15-mer]
activity at the lowest concentration tested ([3]; 0.25 nM): substantial activity | activity in the alkalinization assay [3, 7]: nearly as active as the native peptide

EIKARGKNKTKPTPSSGKGGKHN (EIKARGKNKTKPTPSSGKGGKHN) [AtPep4]
change in pH [2, 6]: did not increase medium pH | alkalinization of the medium [2, 6]: weaker activity

15-mer RGKEKVSSGRPGQHN with Gly at position 9 replaced by Ala; inactive derivative of AtPep1 [Gly to Ala substitution at position 9]
activity in the alkalinization assay [3, 7]: little activity | EC50 ([3]; Arabidopsis suspension cultured cells, pH of media after 20 min, read-out: half-maximal activity in the alkalinization assay): > 250 nM | competition with the non-substituted 15-mer for receptor binding [4]: neither of these analogs were able to compete | Pst DC3000 growth in leaves after pre-infiltration [5]: not observed
